Measurements reported in patent publication US20250312407A1, “PEPTIDE AND USE THEREOF” (AJINOMOTO CO., INC., priority 2019, published 2025).

What was measured:
Type in all cases: in vivo, mouse
acetyl-L-carnitine = experiment: Anti-stress, neuroprotective action (plasma acetyl-L-carnitine after restraint stress); conditions: 30 mg/kg oral after 3 hr restraint stress, C57BL/6J mice, 120 min after administration, vs vehicle group
Source text: Male C57BL/6J mice (9-week-old) that had been under fasting treatment overnight were housed in a restraint stress cage for mice, and allowed to stand for 3 hr. […] Acetyl-L-carnitine is an endogenous metabolite known to have an anti-stress and neuroprotective action (e.g., Nasca C et al., “L-acetylcarnitine causes rapid antidepressant effects through the epigenetic induction of mGlu2 receptors”, Proc. Natl. Acad. Sci. USA, 2013 Mar. 19; 110 (12): 4804-4809; and Kazak F et al., “Neuroprotective effects of acetyl-1-carnitine on lipopolysaccharide-induced neuroinflammation in mice: Involvement of brain-derived neurotrophic factor”, Neuroscience Letters, 2017 Sep. 29; 658:32-36, which are incorporated herein by reference in their entireties).

male KK-Ay mice [1] = experiment: Intestine permeability (plasma FD-4 after oral FITC-dextran); conditions: 100 mg/kg oral, vs vehicle group
Procedure: The administration medium (0.5% methylcellulose; vehicle) or compound 1 (100 mg/kg) was orally administered to male KK-Ay mice (11 weeks old) that had been fasted from 10 o'clock the day before, and FITC-dextran (FD-4) (300 mg/kg) was orally administered 1 hr later. Blood was collected from the tail vein 1 hr and 2 hr after FD-4 administration, and the plasma FD-4 concentration was measured.

male KK-Ay mice [2] = experiment: Insulin tolerance test (ITT); conditions: 30 mg/kg oral, insulin 0.5 U/kg s.c. 1 hr later, profile and ΔAUC vs vehicle group
Procedure: The administration medium (0.5% methylcellulose; vehicle) or compound 1 (30 mg/kg) was orally administered to male KK-Ay mice (7 to 12 weeks old) that had been fasted from 17 o'clock the day before, and insulin (0.5 U/kg) was subcutaneously administered 1 hr later. Blood was collected from the tail vein before administration, and 15, 30, 60, 120 and 180 min after administration, and the blood glucose level was measured. The blood glucose level was also measured for compounds 2 to 6 by a similar method. The results of the area under curve (ΔAUC) of the blood glucose level profile calculated with the 0-minute value as the standard are shown in FIG. 3(b).

male C57BL/6J mice = experiment: Oral glucose tolerance test (OGTT); conditions: 30 mg/kg oral
Procedure: The administration medium (0.5% methylcellulose; vehicle) or compound 1 (30 mg/kg) was orally administered to male C57BL/6J mice (7 weeks old) that had been fasted from 17 o'clock the day before, and 2 g/kg of glucose was orally administered by gavage 1 hr later. Blood was collected from the tail vein before administration, and 15, 30, 60, 120 and 180 min after administration, and the blood glucose level was measured.
The blood glucose level after glucose loading remained low in the compound 1 administration group from 30 min after loading and thereafter. The results of the area under curve (ΔAUC) of the blood glucose level profile calculated with the 0-minute value as the standard are shown in FIG. 2.

[3] = test system: ornithine/citrulline ratio; experiment: Anti-fatigue action (plasma ornithine/citrulline ratio); conditions: 30 mg/kg by gavage, C57BL/6J mice, portal vein, 120 min after administration, vs vehicle group
Procedure: The administration medium (0.5% methylcellulose; vehicle) or compound 1 (30 mg/kg) was administered by gavage to male C57BL/6J mice (7 weeks old) that had been under fasting treatment overnight. Blood was collected from the portal vein 120 min after administration, and the plasma ornithine and citrulline concentrations were measured. The ornithine/citrulline ratio in plasma is known as a biomarker that increases during fatigue such as chronic fatigue syndrome and the like (e.g., Yamano E et al., “Index markers of chronic fatigue syndrome with dysfunction of TCA and urea cycles”, Scientific Reports, 2016 Oct. 11; 6:34990, doi: 10.1038/srep34990, which is incorporated herein by reference in its entirety).

FGF21 = FGF21 secretion promoting action (plasma FGF21 concentration); conditions: 30 mg/kg by gavage, C57BL/6J mice, portal vein, 120 min after administration, vs vehicle group
Procedure: The administration medium (0.5% methylcellulose; vehicle) or compound 1 (30 mg/kg) was administered by gavage to male C57BL/6J mice (8 weeks old) that had been under fasting treatment for 6 hr. Blood was collected from the portal vein before administration and 120 min after administration, and the plasma FGF21 concentration was measured.

## LIVTQTMKGL (Designed peptide) [compound 1]
acetyl-L-carnitine
  blood acetyl-L-carnitine concentration: increase in the blood acetyl-L-carnitine concentration was observed
Male KK-Ay mice [1]; 1 hr after oral FD-4 (300 mg/kg)
  blood FD-4 concentration: suppression of an increase in the blood FD-4 concentration was observed
Male KK-Ay mice [1]; 2 hr after oral FD-4 (300 mg/kg)
  blood FD-4 concentration: suppression of an increase in the blood FD-4 concentration was observed
Male KK-Ay mice [2]
  blood glucose level after insulin (insulin sensitivity improving effect), ITT: significant decrease in blood glucose
Male C57BL/6J mice; 0-minute value as the standard, vs vehicle group
  area under curve (ΔAUC) of the blood glucose level profile, OGTT: low value as compared with the vehicle group
Male C57BL/6J mice; 2 g/kg glucose 1 hr later, from 30 min after loading
  blood glucose level after glucose loading: remained low
[3]
  blood ornithine/citrulline ratio: decreased
FGF21
  blood FGF21 concentration: increase in the blood FGF21 concentration was confirmed
